A word on the Kd: it is a measure of binding affinity in units of concentration. Read a high Kd as lower affinity. Broadly, the EC50 is the concentration that produces a half-maximal response. Low readings indicate greater potency, high ones weaker potency.

Consider four compounds from ChEMBL document CHEMBL1152104, “Synthesis of partially non-peptidic neurotensin mimetics” (Bioorg Med Chem Lett, 1994).

Test [1] deals with T1, Neurotensin receptor type 1 (Rattus norvegicus, UniProt P20789). The test is described as follows: Equilibrium dissociation constant at cloned rat Neurotensin receptor (NT) receptor.
The target in test [2] is T1, Neurotensin receptor type 1. The test is described as follows: Equilibrium dissociation constant at cloned rat Neurotensin receptor (NT) receptor expressed in CHO-K1 cells; 0.3-0.7 uM. In kind it is cell-based.
The species named for test [3] is Homo sapiens. Description: Concentration required to stimulate cGMP production in NIE-115 neuroblastoma cells at higher doses in 10-100 uM range. In kind it is functional, cell-based.
For test [4], the system named is CHO-K1. Description: Effect on PI turnover in intact CHO-K1 cells. In kind it is functional, cell-based. The conditions noted are these: Cricetulus griseus.

T1 sequence (P20789 whole entry): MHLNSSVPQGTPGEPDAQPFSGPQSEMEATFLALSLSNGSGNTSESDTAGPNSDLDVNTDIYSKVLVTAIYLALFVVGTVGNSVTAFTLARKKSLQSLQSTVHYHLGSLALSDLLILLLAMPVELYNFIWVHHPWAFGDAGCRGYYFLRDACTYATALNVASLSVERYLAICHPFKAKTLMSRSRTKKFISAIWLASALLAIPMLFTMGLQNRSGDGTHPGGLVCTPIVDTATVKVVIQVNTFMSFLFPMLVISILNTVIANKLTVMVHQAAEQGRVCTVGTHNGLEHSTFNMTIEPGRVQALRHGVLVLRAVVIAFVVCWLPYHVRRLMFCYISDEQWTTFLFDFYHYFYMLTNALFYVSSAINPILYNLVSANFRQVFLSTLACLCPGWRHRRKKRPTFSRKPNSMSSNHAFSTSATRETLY

As for `CC[C@H](C)[C@H](NC(=O)[C@H](Cc1ccc(O)cc1)NC(=O)c1[nH]c2ccc(OCCCCCN)cc2c1CCCCCCN)C(=O)N[C@@H](CC(C)C)C(=O)O`, the Kd in test [1] is approximately 40000 nM. Turning to `CC[C@H](C)[C@H](NC(=O)[C@H](Cc1c[nH]c2ccccc12)NC(=O)c1[nH]c2c(OCCCCCN=C(N)N)cccc2c1CCCCCCN=C(N)N)C(=O)N[C@@H](CC(C)C)C(=O)O`, the Kd in test [2] amounted to 300 nM. In the case of `CC[C@H](C)[C@H](NC(=O)[C@H](Cc1ccc(O)cc1)NC(=O)c1[nH]c2c(OCCCCCN=C(N)N)cccc2c1CCCCCCN=C(N)N)C(=O)N[C@@H](CC(C)C)C(=O)O.O=C(O)C(F)(F)F`, a half-maximal effect in test [3] (EC50) was put at 19000 nM. The affinity in test [2], expressed as Kd, was 300 nM. As for `CC[C@H](C)[C@H](NC(=O)[C@H](Cc1ccc(O)cc1)NC(=O)c1[nH]c2c(OCCCCCN)cccc2c1CCCCCCN)C(=O)N[C@@H](CC(C)C)C(=O)O`, the Kd in test [2] stood at 300 nM. The same compound yielded an EC50 in test [4] of approximately 1300 nM.
